Measurements as given in patent publication US12337042B2, “Structural optimization method to improve the theranostic performance of peptide receptor-targeted radionuclide therapy for cancers” (University of Iowa Research Foundation, priority 2020, dated 2025).
Read-outs that look alike come from different tables or passages of the source.

Tests used:
[1] = biological target: T1, SSTR2-positive AR42J cells (Rattus norvegicus, UniProt P30680); test: ^125I-TOC competitive binding assay in AR42J cells
T1 construct: endogenous in cells; host or cells: AR42J rat pancreatic acinar cells
Experimental: ^125I-TOC Competitive Binding Assay
TOC was labeled with iodine-125 (^125I) by conventional chloramine T method as described elsewhere (23). 1.0×10^5 AR42J rat pancreatic acinar cells were plated into poly-D-lysine-coated 24-well plates. […] The cells were then washed twice with ice-cold PBS and lysed with 0.5 N NaOH, and the radioactivity was measured via a gamma counter. The half maximal inhibitory concentration (IC50) was determined using GraphPad Prism V8.0.

[2] = ^212Pb-PSC-PEG2-TOC toxicity studies with escalating doses; assay type: in vivo, CD-1 Elite (SOPF) male mice
Text: FIG. 12A-12F. Dosimetry and toxicities of escalated doses (up to 150 μCi) of ^212Pb—PSC-PEG2-TOC in CD-1 Elite (SOPF) male mice. (A) Body weight change after the injection of ^212Pb-PSC-PEG2-TOC. […] (B) ^212Pb-PSC-PEG2-TOC biodistribution in CD-1 Elite (SOPF) male mice. ^212Pb is used for the study to include the impact of potential demetallation of ^212Pb and redistribution in bone marrow. (C) Estimated renal dose arising from the escalating doses of ^212Pb-PSC-PEG2-TOC based on the biodistribution in CD-1 Elite (SOPF) male mice. Organ level internal dose assessment (OLINDA) V2.1 was used for dose estimation in mice using 30 g mouse voxel phantom model. (D-E) The levels of renal toxicity markers arising from the escalating doses of ^212Pb-PSC-PEG2-TOC assessed by urine neutrophil gelatinase-associated lipocalin (uNGAL; D) at day 1 and day 3 post-administration and blood urea nitrogen (BUN; E) at 3 months post-administration.
^212Pb-PSC-PEG2-TOC Toxicity Studies
Escalating doses (0, 0.37, 1.85, 3.33, and 5.55 MBq or 0, 10, 50, 90, and 150 μCi) of ^212Pb-PSC-PEG2-TOC were administered to tumor-free CD-1 Elite (SOPF) male mice (n=4 for each group). Body weight was measured 2 times a week by 3 weeks post-injection and 1 time a week afterwards. Urine samples were collected (via metabolic case) at day 1 and day 3 post-administration to evaluate acute tubular toxicities in kidneys. […]

[3] = AR42J cells, 2 hours at 37° C., mean ± spread, read-out: IC50, competitive inhibition of ^125I-tyr^3-octreotide (^125I-TOC) binding

T1 sequence (P30680 whole entry): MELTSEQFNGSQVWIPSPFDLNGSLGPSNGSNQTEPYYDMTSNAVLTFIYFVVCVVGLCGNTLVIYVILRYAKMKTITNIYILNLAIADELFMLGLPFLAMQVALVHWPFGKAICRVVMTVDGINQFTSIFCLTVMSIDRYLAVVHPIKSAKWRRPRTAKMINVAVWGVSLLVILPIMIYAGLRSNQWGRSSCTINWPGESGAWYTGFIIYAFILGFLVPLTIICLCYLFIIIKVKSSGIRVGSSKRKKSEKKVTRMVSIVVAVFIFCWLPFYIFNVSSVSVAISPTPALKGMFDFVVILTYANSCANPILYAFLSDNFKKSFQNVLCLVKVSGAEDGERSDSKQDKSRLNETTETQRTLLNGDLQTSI

Row | SMILES | IC50 [1, 3] [nM] | also measured
1 | C[C@@H](O)[C@@H]1NC(=O)[C@H](CCCCN)NC(=O)[C@@H](Cc2c[nH]c3ccccc23)NC(=O)[C@H](Cc2ccc(O)cc2)NC(=O)[C@@H](NC(=O)[C@@H](Cc2ccccc2)NC(=O)CCOCCOCCOCCOCCNC(=O)CN2CCN(CC(=O)O)CCN(CC(N)=O)CCN(CC(=O)O)CC2)CSSC[C@@H](C(=O)N[C@H](CO)[C@@H](C)O)NC1=O [PSC-PEG4-TOC] | 9.4 ± 1.3 | –
2 | C[C@@H](O)[C@@H]1NC(=O)[C@H](CCCCN)NC(=O)[C@@H](Cc2c[nH]c3ccccc23)NC(=O)[C@H](Cc2ccc(O)cc2)NC(=O)[C@@H](NC(=O)[C@H](N)Cc2ccccc2)CSSC[C@@H](C(=O)N[C@H](CO)[C@@H](C)O)NC1=O [TOC, Tyr^3-octreotide, reference compound] | – | IC50 [1]: 3.1 ± 1.1 nM
3 | C[C@@H](O)[C@@H]1NC(=O)[C@H](CCCCN)NC(=O)[C@@H](Cc2c[nH]c3ccccc23)NC(=O)[C@H](Cc2ccc(O)cc2)NC(=O)[C@@H](NC(=O)[C@@H](Cc2ccccc2)NC(=O)CCOCCOCCNC(=O)CN2CCN(CC(=O)O)CCN(CC(N)=O)CCN(CC(=O)O)CC2)CSSC[C@@H](C(=O)N[C@H](CO)[C@@H](C)O)NC1=O [^212Pb-PSC-PEG2-TOC, metal not drawn] | – | hematologic toxicity by complete blood count (CBC) ([2]; doses up to 150 μCi, week 1, 2, and 4 post-administration): reversible hematologic toxicity; body weight change after injection ([2]; escalated doses up to 150 μCi, tumor-free mice): After an initial decrease in body weight in first days, the body weight of the treated mice increased gradually
4 | C[C@@H](O)[C@@H]1NC(=O)[C@H](CCCCN)NC(=O)[C@@H](Cc2c[nH]c3ccccc23)NC(=O)[C@H](Cc2ccc(O)cc2)NC(=O)[C@@H](NC(=O)[C@@H](Cc2ccccc2)NC(=O)CN2CCN(CC(=O)O)CCN(CC(N)=O)CCN(CC(=O)O)CC2)CSSC[C@@H](C(=O)N[C@H](CO)[C@@H](C)O)NC1=O [PSC-TOC] | 6.2 ± 1.1 | –
5 | C[C@@H](O)[C@@H]1NC(=O)[C@H](CCCCN)NC(=O)[C@@H](Cc2c[nH]c3ccccc23)NC(=O)[C@H](Cc2ccc(O)cc2)NC(=O)[C@@H](NC(=O)[C@@H](Cc2ccccc2)NC(=O)CCOCCOCCNC(=O)CN2CCN(CC(=O)O)CCN(CC(N)=O)CCN(CC(=O)O)CC2)CSSC[C@@H](C(=O)N[C@H](CO)[C@@H](C)O)NC1=O [PSC-PEG2-TOC] | 5.3 ± 1.2 | –
